Assay results taken from US7018999B2, “Methods for the treatment and prevention of pain” (Cephalon, Inc., priority 2001, dated 2006).

Tested on: formalin-induced behavioral response
Assay: formalin-induced behavioral response model (flinching/shaking, licking/biting; phase I and phase II)
[1] = dose 3 mg/kg subcutaneously two hours prior to formalin administration

Compound: CC(C)Oc1ccc2c(c1)CCc1c-2c2c(c3c4ccccc4n(CCO)c13)CNC2=O [IX]
- % Inhibition of Phase II [1]: 37 ± 3%

Compound: O=C1NCc2c1c1c3c4c2c2ccccc2n4C2CC[C@H](O2)C3c2ccccc2-1 (stereo partly drawn) [XIV]
- % Inhibition of Phase II [1]: 34 ± 3%

Compound: COc1ccc2c(c1)Cc1c-2c2c(c3c4ccccc4n(CCO)c13)CNC2=O [XVI]
- % Inhibition of Phase II [1]: 22 ± 6%

Compound: CCOCc1ccc2c(c1)c1c3c(c4c(c1n2CCCO)Cc1ccccc1-4)C(=O)NC3 [XV]
- % Inhibition of Phase II (dose 10 mg/kg subcutaneously two hours prior to formalin administration): 19 ± 3%

Compound: C[C@]1(O)C[C@H]2O[C@]1(C)n1c3ccccc3c3c4c(c5c6ccccc6n2c5c31)C(=O)NC4 [XIII]
- % Inhibition of Phase II [1]: 29 ± 5%

Compound: CC(C)Oc1ccc2c(c1)CCc1c-2c2c(c3c1[nH]c1ccc(F)cc13)CNC2=O [VIII]
- % Inhibition of Phase II (dose 1 mg/kg subcutaneously two hours prior to formalin administration): 29 ± 4%
